“Also recorded” adds a separate entry of the source.
Assays:
[1] = system: murine ischemia/reperfusion model of myocardial infarction; assay: Mouse ischemia/reperfusion model, topical capsaicin 15 min prior to coronary occlusion, infarct size; assay type: in vivo, mice
[2] = molecular target: T1, TRPV1 (Mus musculus, UniProt Q704Y3); assay: Topical capsaicin before ischemia/reperfusion in wild-type versus TRPV1 knock-out mice, infarct size; assay type: in vivo; settings: capsaicin topically to the abdomen prior to ischemia and reperfusion, compared to TRPVKO mice
T1 construct: data from wild-type mice topically treated with capsaicin administered to the abdomen; from tissue; host or cells: living mice; skin nociceptors (C-fibers) of the abdomen
Excerpt: Infarct size as a percent of risk region is presented on the y-axis. The first bar presents data from wild-type mice topically treated with capsaicin administered to the abdomen prior to surgical induction of ischemia and reperfusion (WT, Capsaicin, hatched bar). The second bar presents data from TRPV 1 knockout mice topically treated with capsaicin administered to the abdomen prior to surgical induction of ischemia and reperfusion (TRPVKO, Capsaicin, dotted bar). The third bar presents data from TRPV 1 knockout mice subjected to sham treatment prior to surgical induction of ischemia and reperfusion (TRPVKO No capsaicin, empty bar).

[3] = system: murine ischemia/reperfusion model of myocardial infarction; assay: Topical capsaicin during ischemia or after reperfusion, infarct size; assay type: in vivo, mice; settings: p<0.01
[4] = system: protein kinase C(PKC); assay: Chelerythrine before electrical stimulation and ischemia/reperfusion, infarct size; assay type: in vivo, mice; settings: chelerythrine plus electrical stimulation compared with vehicle alone plus electrical stimulation
Excerpt: FIG. 3C presents data from wild-type mice treated with chelerythrine prior to sham treatment or electrical stimulation followed by the ischemia/reperfusion procedure. Chelerythrine is a relatively selective general protein kinase C(PKC) inhibitor. Most previously described forms of preconditioning or postconditioning require PKC activation in cardiomyocytes. Typically this is indicative of activation and/or repression of specific PKC isoforms in the hearts. Infarct size as a percentage of risk region was assessed and is indicated. The hatched bar presents data from mice treated with chelerythrine and subject to sham treatment (chelerythrine control). The dotted bar presents data from mice treated with vehicle alone and electrically stimulated (vehicle ES). […]
A previously described mouse model of ischemia and reperfusion (I/R) injury in vivo was used (Ren et al. (2004) J. Surg Res. 121(1):120-129; Fan et al (2005)Circulation 111(14):1792-1799; Zhou et al (2007)Cardiovascular Research 75(3) 487-497; and Diwan et a/(2007) J. Clinical Investigation 117(10):2825-2833, herein incorporated by reference in their entirety). […] All mice were continuously monitored by electrocardiography (ECG) (DigiMed Sinus Rhythm Analyzer, Micro-Med Inc), and mice without evidence of ischemia and timely reperfusion were excluded from the studies. […]

[5] = system: peripheral C-fiber nociceptors; assay: Lidocaine before remote electrical stimulation and ischemia/reperfusion, infarct size; assay type: in vivo, mice; settings: 2% lidocaine, 10 μl s.c., prior to electrical stimulation and ischemia; compared with vehicle ES
Protocol: (§1) A previously described mouse model of ischemia and reperfusion (I/R) injury in vivo was used (Ren et al. (2004) J. Surg Res. 121(1):120-129; Fan et al (2005)Circulation 111(14):1792-1799; Zhou et al (2007)Cardiovascular Research 75(3) 487-497; and Diwan et a/(2007) J. Clinical Investigation 117(10):2825-2833, herein incorporated by reference in their entirety). Mice were anesthetized with sodium pentobarbital (90 mg/kg ip), intubated with PE 90 tubing and ventilated using a mouse miniventilator (Harvard Apparatus, Holliston, Mass.). All mice were continuously monitored by electrocardiography (ECG) (DigiMed Sinus Rhythm Analyzer, Micro-Med Inc), and mice without evidence of ischemia and timely reperfusion were excluded from the studies. […]
(§2) Mice were euthanized either 4 or 24 hours after reperfusion and infarct size determination and imaging were performed by previously described methods (Ren et al. (2004) J. Surg Res. 121(1):120-129 and Guo et al (1998) Am J. Physiology 275(4 Pt 2):H1375-1387, herein incorporated by reference in their entirety). […] Infarct size was determined by the method of Fishbein et al (1981) Am Heart J 101(5):593-600, herein incorporated by reference in its entirety. […]

[6] = molecular target: T2, TRPV2 (Mus musculus, UniProt Q9WTR1); assay: Topical probenecid in mouse ischemia/reperfusion model, infarct size; assay type: in vivo, mice; settings: topical probenecid application versus control animals; p<0.07
T2 construct: mice that received topical probenecid application; from tissue; host or cells: living mice (topical application to skin)
T2 sequence (Q9WTR1 1-756): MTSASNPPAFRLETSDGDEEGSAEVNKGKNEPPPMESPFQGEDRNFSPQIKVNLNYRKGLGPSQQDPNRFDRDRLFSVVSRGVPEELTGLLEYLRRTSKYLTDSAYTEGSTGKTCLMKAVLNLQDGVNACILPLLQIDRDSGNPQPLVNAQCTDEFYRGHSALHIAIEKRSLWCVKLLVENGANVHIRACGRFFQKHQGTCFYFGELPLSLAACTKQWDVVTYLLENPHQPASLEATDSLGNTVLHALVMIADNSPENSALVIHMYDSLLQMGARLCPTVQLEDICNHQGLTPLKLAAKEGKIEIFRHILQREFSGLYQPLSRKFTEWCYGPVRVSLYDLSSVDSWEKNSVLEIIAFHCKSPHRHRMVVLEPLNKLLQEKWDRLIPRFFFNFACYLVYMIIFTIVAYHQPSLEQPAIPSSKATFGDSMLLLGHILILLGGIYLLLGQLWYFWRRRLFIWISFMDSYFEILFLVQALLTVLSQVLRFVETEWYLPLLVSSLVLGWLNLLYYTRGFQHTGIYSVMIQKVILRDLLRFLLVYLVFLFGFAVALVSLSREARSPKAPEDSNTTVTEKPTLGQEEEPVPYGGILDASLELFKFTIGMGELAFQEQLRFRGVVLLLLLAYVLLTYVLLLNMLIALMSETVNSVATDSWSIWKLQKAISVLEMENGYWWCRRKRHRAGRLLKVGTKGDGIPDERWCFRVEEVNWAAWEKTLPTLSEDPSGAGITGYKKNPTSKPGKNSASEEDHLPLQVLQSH
Excerpt: FIG. 11 presents a graph of infarct size as a percent of risk area in mice that received topical probenecid application (empty bars) or sham treatments (hatched bars).
as §1, §2

[7] = system: β-adrenergic receptor; design: species or system mice; settings: mouse, in vivo
Protocol: The mice then underwent either sham treatment or electrical stimulation (ES) followed by the ischemia/reperfusion procedure.
A lateral thoracotomy (1.5 cm incision between the second and third ribs was performed to provide exposure of the left anterior descending coronary artery (LAD). Vascular bundles in the vicinity were coagulated using a microcoagulator (Medical Industries Inc, St. Petersburg Fla.). An 8-O nylon suture was placed around the LAD 2-3 mm from the tip of the left auricle and a piece of soft silicon tubing (0.64 mm ID, 1.19 mm OD) was placed over the artery. Coronary occlusion was achieved by tightening and tying the suture. Coronary occlusion was for 45 minutes, unless indicated otherwise. At the end of the occlusion, the suture was untied and left in place. Ischemia was confirmed by visual observation of cyanosis and by continuous ECG monitoring (QRS complex widening, T wave inversion and ST segment changes); reperfusion was confirmed by reversal of these effects. […]

T1 sequence (Q704Y3 whole entry, the tested form may be a part): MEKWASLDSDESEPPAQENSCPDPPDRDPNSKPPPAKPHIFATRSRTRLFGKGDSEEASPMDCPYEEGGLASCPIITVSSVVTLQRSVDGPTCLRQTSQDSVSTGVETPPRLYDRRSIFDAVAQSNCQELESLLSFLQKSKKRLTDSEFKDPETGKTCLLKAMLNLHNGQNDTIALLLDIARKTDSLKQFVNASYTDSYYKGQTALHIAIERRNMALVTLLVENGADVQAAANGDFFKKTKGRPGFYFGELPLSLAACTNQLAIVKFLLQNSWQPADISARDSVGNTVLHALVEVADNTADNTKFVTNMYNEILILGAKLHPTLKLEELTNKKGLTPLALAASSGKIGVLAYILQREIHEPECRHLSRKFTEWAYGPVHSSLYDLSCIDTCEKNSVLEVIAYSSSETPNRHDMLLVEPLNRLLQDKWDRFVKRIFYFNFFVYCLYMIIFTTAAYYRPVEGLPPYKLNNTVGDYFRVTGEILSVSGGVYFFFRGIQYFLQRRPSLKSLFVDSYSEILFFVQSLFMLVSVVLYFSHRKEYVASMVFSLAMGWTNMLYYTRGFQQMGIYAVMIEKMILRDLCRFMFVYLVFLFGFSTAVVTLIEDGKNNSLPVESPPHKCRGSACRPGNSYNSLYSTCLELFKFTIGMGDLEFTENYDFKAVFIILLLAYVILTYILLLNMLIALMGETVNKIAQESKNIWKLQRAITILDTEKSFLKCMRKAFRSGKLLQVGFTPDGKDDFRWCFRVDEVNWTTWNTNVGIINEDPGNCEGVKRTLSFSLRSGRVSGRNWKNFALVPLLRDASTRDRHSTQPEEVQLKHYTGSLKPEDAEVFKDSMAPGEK

Compound: COc1cc(CNC(=O)CCCC/C=C/C(C)C)ccc1O [capsaicin, (6E)-N-[(4-Hydroxy-3-methoxyphenyl)methyl]-8-methyl-6-nonenamide]
- reduction of infarct size ([1]; remote pre-conditioning, stimulus given 15 minutes prior to the ischemia, 45 min coronary occlusion, versus sham, n=6): 85%
- Infarct size as a percent of the risk region ([1]; remote pre-treatment prior to ischemia/reperfusion versus sham, P<0.01): substantial reduction in infarct size
- infarct size as a percent of risk region [2]: reduced myocardial infarct size
- infarct size as a percent of risk area ([3]; topical capsaicin application after reperfusion (postCON) versus sham): significantly reduces infarct size
- infarct size as a percent of risk area ([3]; topical capsaicin application during ischemia (conditioning) versus sham): significantly reduces infarct size

Compound: COc1ccc2c(c[n+](C)c3c4cc5c(cc4ccc23)OCO5)c1OC [chelerythrine]
- Infarct size as a percentage of risk region [4]: reduced inhibition of ischemia-related tissue damage

Compound: CCN(CC)CC(=O)Nc1c(C)cccc1C [lidocaine]
- infarct size as a percent of risk region [5]: no significant cardioprotection relative to controls; also recorded: significantly higher percentage of risk region

Compound: CCCN(CCC)S(=O)(=O)c1ccc(C(=O)O)cc1 [probenecid]
- infarct size as a percent of risk region [6]: significantly reduced

Compound: CC(C)NCC(O)COc1cccc2ccccc12 (stereo not drawn) [propanolol]
- Infarct size as a percentage of risk region [7]: significantly higher

Reference: patent US8980223B2, “Methods of preventing ischemic injury using peripheral nociceptive stimulation” (University of Cincinnati, priority 2009, dated 2015)
